Literature values, collected in patent US12383526B2, “Optimized sigma-1 agonist method of responder selection and treatment” (ANAVEX LIFE SCIENCES CORP., priority 2018, dated 2025).

Legend:
[1] = Phase 1 study; 1-60 mg range; male healthy subjects; cited from earlier work
[2] = tested on: cholinergic muscarinic receptors; settings: mice; cited from earlier work

CN(C)CC1CCOC1(c1ccccc1)c1ccccc1.Cl (centres unmarked) [ANAVEX2-73, tetrahydro-N,N-dimethyl-2,2-diphenyl-3-furanmethanamine hydrochloride]
relationship between dose and plasma concentration [1]: linear
modulation of cholinergic muscarinic receptors [2]: modulate cholinergic muscarinic receptors
